# In PMC6540747 (The AAPS journal, 2017):
# Tests used:
# [1] = test system: liver MPS cells; experiment: Liver MPS intracellular accumulation; assay type: in vitro ADME, human; conditions: 72h after dosing; Gut / Liver and Liver only arms
# [2] = test system: gut MPS and liver MPS on-platform; experiment: Drug and metabolite concentration-time profiles on the multi-MPS platform; assay type: in vitro ADME, human; conditions: Gut only arm
# [3] = fixed model parameter, same value in all arms; cited from earlier work
# [4] = test system: liver MPS (human primary cryopreserved hepatocytes and Kupffer cells); experiment: Intrinsic metabolic clearance of the liver MPS on the multi-MPS platform; assay type: in vitro ADME; conditions: posterior mean (SD)
# [5] = as above; assay type: in vitro ADME, human; conditions: human
# [6] = LiverChip technology; cited from earlier work
# [7] = test system: human hepacyte cultures; conditions: human hepatocyte cultures; cited from earlier work
"intracellular accumulation in liver MPS (Kp, cells vs liver compartment medium) [1]",4-OH-DCF levels (mixing chamber concentration) ([2]; after 40 μM DCF dose),"CLintl (intrinsic metabolic DCF clearance of the liver MPS) ([4]; Gut / Liver arm, 40 μM DCF to gut apical side)","CLintl (intrinsic metabolic DCF clearance of the liver MPS) ([4]; Liver only arm, 40 μM DCF to mixing chamber)",hepatocyte CLint at 40 μM [5],time at which concentration-time profiles reach a plateau ([2]; after the dose),Compound,fum (DCF fraction unbound in circulating common medium) [3],non-specific binding to PSF [6],Clintl [7]
substantial,< 0.05 µM,,,,,"O=C(O)Cc1ccccc1Nc1c(Cl)cc(O)cc1Cl [4-OH-DCF, 4-hydroxy-diclofenac]",,,
substantial,,10.18 (0.46) μL/min,8.99 (0.20) μL/min,17 µL/min/1e6 cells,approximately 24 hours,"O=C(O)Cc1ccccc1Nc1c(Cl)cccc1Cl [DCF, diclofenac]",0.13,absence of non-specific binding,17.8 μL/min/10^6 cells
